The values that follow come from article PMC11822212, “High-throughput screening identifies Aurora kinase B as a critical therapeutic target for Merkel cell carcinoma” (Nature Communications, 2025).

Counter-ions that a name gives are not always drawn.

For test [1], the system named is six MCC cell lines and four control cell lines. The test can be described thus: qHTS cell viability, all 10 cell lines screened. In kind it is cell-based.
Test [2] has as its system VP-MCC cell lines (WAGA, MKL-1, MKL-2). The test can be described thus: qHTS cell viability, VP-MCC cell lines as a group (mean AUC, VP.MCC.avg). Type of test: cell-based, human.
For test [3], the system named is MCC cell lines (WAGA, MKL-1, MKL-2, MCC13, MCC26, UISO). Description: qHTS cell viability, all six MCC cell lines as a group (mean AUC, MCC.avg). In kind it is cell-based, human. In general terms: Quantitative high-throughput screening tests each substance at several concentrations.
In test [4] the test system is VN-MCC cell lines (MCC13, MCC26, UISO). Description: qHTS cell viability, VN-MCC cell lines as a group (mean AUC, VN.MCC.avg). Type of test: cell-based, human.
The subject of another test is MKL-2 cells (VP-MCC). Description: qHTS cell viability (CellTiter-Glo, 72 h; primary and follow-up small molecule screen). Type of test: cell-based, human. The note with it: for Area under the dose-response curve (AUC) MKL-2: primary high-throughput screen, viability 72 h, n = 1; for MKL2_AUC: area under the dose-response curve, MKL-2 cells, AUC<450 = reduced viability.

The test system of a further test is MCC13 cells (VN-MCC). The test is described as above. In kind it is cell-based, human. The settings on record: for Area under the dose-response curve (AUC) MCC13: primary high-throughput screen, viability 72 h, n = 1; for MCC13_AUC: area under the dose-response curve, MCC13 cells, AUC<450 = reduced viability.
Another test deals with HEK293T cells. Description: qHTS cell viability (CellTiter-Glo, 72 h; primary screen), control cell line. The settings on record: for Area under the dose-response curve (AUC) HEK293T: primary high-throughput screen, viability 72 h, n = 1; for HEK293T_AUC: area under the dose-response curve, HEK293T control cells, AUC<450 = reduced viability. Type of test: cell-based, human.
The test system of another test is UISO cells (VN-MCC). The test can be described thus: qHTS cell viability (CellTiter-Glo, 72 h; primary and follow-up small molecule screen). The note with it: for Area under the dose-response curve (AUC) UISO: primary high-throughput screen, viability 72 h, n = 1; for UISO_AUC: area under the dose-response curve, UISO cells, AUC<450 = reduced viability. Type of test: cell-based, human.

The subject of another test is NIH-3T3 cells. The test can be described thus: qHTS cell viability (CellTiter-Glo, 72 h; primary screen), control cell line. Type of test: cell-based, mouse. The settings on record: for Area under the dose-response curve (AUC) NIH3T3: primary high-throughput screen, viability 72 h, n = 1; for NIH3T3_AUC: area under the dose-response curve, NIH3T3 control cells, AUC<450 = reduced viability.

The next test relates to MCC26 cells (VN-MCC). Description: qHTS cell viability (CellTiter-Glo, 72 h; primary and follow-up small molecule screen). Type of test: cell-based, human. The settings on record: for Area under the dose-response curve (AUC) MCC26: primary high-throughput screen, viability 72 h, n = 1; for MCC26_AUC: area under the dose-response curve, MCC26 cells, AUC<450 = reduced viability.

The test system of the next test is HACAT cells. Description: qHTS cell viability (CellTiter-Glo, 72 h; primary screen), control cell line. In kind it is cell-based, human. The note with it: for Area under the dose-response curve (AUC) HACAT: primary high-throughput screen, viability 72 h, n = 1; for HACAT_AUC: area under the dose-response curve, HACAT control cells, AUC<450 = reduced viability.
Another test has as its system CRL-7250 cells. Described as above. Type of test: cell-based. The note with it: for Area under the dose-response curve (AUC) CRL7250: primary high-throughput screen, viability 72 h, n = 1; for CRL7250_AUC: area under the dose-response curve, CRL7250 control cells, AUC<450 = reduced viability.
Another test concerns WAGA cells (VP-MCC). The test can be described thus: qHTS cell viability (CellTiter-Glo, 72 h; primary and follow-up small molecule screen). In kind it is cell-based, human. The settings on record: for Area under the dose-response curve (AUC) WAGA: primary high-throughput screen, viability 72 h, n = 1; for WAGA_AUC: area under the dose-response curve, WAGA cells, AUC<450 = reduced viability.

The test system of another test is MKL-1 cells (VP-MCC). Described as above. The settings on record: for Area under the dose-response curve (AUC) MKL-1: primary high-throughput screen, viability 72 h, n = 1; for MKL1_AUC: area under the dose-response curve, MKL-1 cells, AUC<450 = reduced viability. Type of test: cell-based, human.

On to `CN1CC[C@]23c4c5ccc(O)c4O[C@H]2[C@@H](O)C=C[C@H]3[C@H]1C5` [Morphine sulfate pentahydrate], for which the Control-MCC in test [1] came out at 52.6314; in test [3], 52.6315. Further, the Control-VP-MCC in test [2] worked out at 53.1007. The molecule further had a Control-VN-MCC in test [4] of 52.1622.

In the case of `C[N+]1(C)[C@@H]2C[C@@H](OC(=O)[C@H](CO)c3ccccc3)C[C@H]1[C@@H]1O[C@@H]12` [Scopolamine methylbromide, reference compound], in the test with MKL-2 cells (VP-MCC), the “Area under the dose-response curve (AUC) MKL-2” value was 496.7. Also, the “Area under the dose-response curve (AUC) MCC13” value with MCC13 cells (VN-MCC) was 481.8. For the same molecule, the “Area under the dose-response curve (AUC) HEK293T” value with HEK293T cells came out at 479.5. Besides, the “Area under the dose-response curve (AUC) UISO” value with UISO cells (VN-MCC) is given as 492.6. Also, the “Area under the dose-response curve (AUC) NIH3T3” value in the test on NIH-3T3 cells turned out to be 468.1. Further, the “Area under the dose-response curve (AUC) MCC26” value with MCC26 cells (VN-MCC) is on record as 475.2. The “Area under the dose-response curve (AUC) HACAT” value in the test with HACAT cells was found to be 476.9. Further, the “Area under the dose-response curve (AUC) CRL7250” value with CRL-7250 cells came out at 474.6. Further, the “Area under the dose-response curve (AUC) WAGA” value in the test on WAGA cells (VP-MCC) was 491.2. Besides, in the test on MKL-1 cells (VP-MCC), the “Area under the dose-response curve (AUC) MKL-1” value amounted to 484.0.

On to `COc1cc2nc(N3CCN(C(=O)C4CCCO4)CC3)nc(N)c2cc1OC` (stereo not drawn) [Terazosin hydrochloride], for which, in test [1], the Control-MCC is recorded as 50.8672. This molecule also registered a Control-VP-MCC in [2] of 51.2361. The molecule further showed a Control-VN-MCC in test [4] of 50.4982.

Molecule `CC(C)(C)NCC(O)c1cc(O)cc(O)c1.CC(C)(C)NCC(O)c1cc(O)cc(O)c1.O=S(=O)(O)O` (stereo not drawn) [Terbutaline hemisulfate] came in with an MKL2_AUC with MKL-2 cells (VP-MCC) of 440.746. The same molecule showed an MCC13_AUC with MCC13 cells (VN-MCC) of 446.456. This molecule also returned an HEK293T_AUC in the test on HEK293T cells of 465.552. The molecule further displayed a UISO_AUC with UISO cells (VN-MCC) of 427.113. In the test with NIH-3T3 cells, this molecule had an NIH3T3_AUC of 463.76. In addition, in the test on MCC26 cells (VN-MCC), the MCC26_AUC is reported as 430.481. In addition, the HACAT_AUC with HACAT cells amounted to 496.73. The CRL7250_AUC in the test on CRL-7250 cells was 479.05. Moreover, the WAGA_AUC in the test with WAGA cells (VP-MCC) is listed as 449.356. In the test with MKL-1 cells (VP-MCC), this molecule gave an MKL1_AUC of 438.666.

As for `CN1CCN(CCCN2c3ccccc3Sc3ccc(C(F)(F)F)cc32)CC1` [Trifluoperazine hydrochloride, reference compound], the “Area under the dose-response curve (AUC) MKL-2” value in the test with MKL-2 cells (VP-MCC) was found to be 488.7. In addition, the “Area under the dose-response curve (AUC) MCC13” value in the test with MCC13 cells (VN-MCC) was 486.4. In the test on HEK293T cells, the “Area under the dose-response curve (AUC) HEK293T” value was found to be 471.8. The “Area under the dose-response curve (AUC) UISO” value with UISO cells (VN-MCC) stood at 500.3. The “Area under the dose-response curve (AUC) NIH3T3” value in the test on NIH-3T3 cells stood at 467.6. Also, the “Area under the dose-response curve (AUC) MCC26” value in the test on MCC26 cells (VN-MCC) is 481.8. Besides, the “Area under the dose-response curve (AUC) HACAT” value with HACAT cells is 455.5. In addition, the “Area under the dose-response curve (AUC) CRL7250” value in the test on CRL-7250 cells was found to be 412.6. Also, the “Area under the dose-response curve (AUC) WAGA” value with WAGA cells (VP-MCC) is reported as 495.2. In the test on MKL-1 cells (VP-MCC), the “Area under the dose-response curve (AUC) MKL-1” value worked out at 497.8.

As to `COc1cc(C(=O)NCc2ccc(OCCN(C)C)cc2)cc(OC)c1OC` [Trimethobenzamide hydrochloride], the MKL2_AUC in the test with MKL-2 cells (VP-MCC) is on record as 453.926. The same molecule yielded an MCC13_AUC with MCC13 cells (VN-MCC) of 447.793. Besides, in the test with HEK293T cells, the HEK293T_AUC stood at 452.936. Also, the UISO_AUC with UISO cells (VN-MCC) worked out at 426.826. In addition, in the test on NIH-3T3 cells, the NIH3T3_AUC was determined as 459.509. This molecule displayed an MCC26_AUC with MCC26 cells (VN-MCC) of 425.084. In the test with HACAT cells, this molecule yielded an HACAT_AUC of 491.547. Also, in the test with CRL-7250 cells, the CRL7250_AUC stood at 477.417. The WAGA_AUC in the test with WAGA cells (VP-MCC) is reported as 468.296. The MKL1_AUC in the test with MKL-1 cells (VP-MCC) came out at 452.093.

Consider `O=C(O)/C=C(\CC(=O)O)C(=O)O` [trans-Aconitic acid], for which the MKL2_AUC in the test on MKL-2 cells (VP-MCC) is recorded as 378.194. The same molecule came in with an MCC13_AUC in the test on MCC13 cells (VN-MCC) of 525.202. Moreover, in the test on HEK293T cells, the HEK293T_AUC is recorded as 467.145. Also, in the test with UISO cells (VN-MCC), the UISO_AUC is listed as 494.852. The molecule further came in with an NIH3T3_AUC in the test on NIH-3T3 cells of 503.673. The MCC26_AUC with MCC26 cells (VN-MCC) is given as 496.696. The molecule also showed an HACAT_AUC in the test with HACAT cells of 490.879. The CRL7250_AUC in the test with CRL-7250 cells stood at 486.622. Moreover, the WAGA_AUC with WAGA cells (VP-MCC) was determined as 441.902. Moreover, in the test with MKL-1 cells (VP-MCC), the MKL1_AUC is listed as 435.147.
